Test results from patent US6166290A, “Glutathione-S-conjugate transport in plants” (The Trustees of the University of Pennsylvania, priority 1997, dated 2000).
Where “and” joins values, the source holds several entries; their conditions need not be identical. Equal values may be shown once. Read-outs that look alike come from different tables or passages of the source.

Experiments:
[1] = biological target: T1, YCF1 (vacuolar membrane vesicles purified from DTY165 cells) (Saccharomyces cerevisiae, UniProt P39109); assay: biochemical; format: biochemical; conditions: for 109Cd.GS2 uptake as percentage of control: 10 min; for 109Cd uptake of Mono-Q fraction: 5 μM gramicidin-D
T1 construct: endogenous in cells; host or cells: S. cerevisiae DTY165 (wild type YCF1), vacuolar membrane vesicles
Method: (§1) In experiments involving cadmium transport, dithiothreitol and EGTA were removed from the suspension medium to prevent the attenuation of YCF1-dependent Cd^2+ transport otherwise exerted by these compounds. Vesiculated vacuolar membranes were subjected to three cycles of 50-fold dilution into simplified suspension medium (1.1 M glycerol, 5 mM Tris-Mes, pH 8.0), centrifugation at 100,000× g for 35 minutes and resuspension in the same medium before use.
(§2) Singly radiolabeled ^109 Cd.GSn and doubly radio-labeled ^109 Cd[^3 H].GS^n complexes were prepared by sequential gel-filtrationand anion-exchange chromatography of the reaction products generated by incubating 20 mM ^109 CdSO4 (78.4 mCi/mmol) with 40 mM GSH or 40 mM [^3 H]GSH (240 mCi/mmol) in 15 ml 10 mM phosphate buffer (pH 8.0) containing 150 mM KNO3 at 45° C. for 24 hours. For gel-filtration, 2 ml aliquots of the reaction mixture were applied to a column (40×1.5 cm ID) packed with water-equilibrated Sephadex G-1 5, eluted with deionized water and ^109 Cd and/or ^3 H in the fractions was measured by liquid scintillation counting. The fractions encompassed by each of the two ^109 Cd.GSn peaks identified were pooled, lyophilized and redissolved in 4 ml of loading buffer (5 mM Tris-Mes, pH 8.0). For anion-exchange chromatography, 0.5 ml aliquots of the resuspended lyophilizates from gel-filtration chromatography were applied to a Mono-Q HR5/5 column (Pharmacia) equilibrated with the same buffer. Elution was with a linear gradient of NaCl (0.5 ml/minute; 0-500 mM) dissolved in loading buffer. The individual fractions corresponding to the major peaks of ^109 Cd obtained from the Mono-Q column (one each for the peaks resolved by gel-filtration chromatography) were pooled, lyophilized and resuspended in 4 ml deionized water after liquid scintillation counting.
(§3) MgATP-energized, uncoupler-insensitive ^109 Cd^2+ uptake by vacuolar membrane vesicles was measured at 25° C. in 200 μl reaction volumes containing 3 mM ATP, 3 mM MgSO4, 5 μM gramicidin-D, 10 mM creatine phosphate, 16 units/ml creatine kinase, 50 mM KCl, 400 mM sorbitol, 25 mM Tris-Mes (pH 8.0) and the indicated concentrations of ^109 CdSO4, GSH or ^109 Cd- and/or ^3 H-labeled purified Cd.GSn complexes as described herein except that the wash media contained 100 μM CdSO4 in addition to sorbitol (400 mM) and Tris-Mes (3 mM, pH 8.0).

[2] = tested on: vacuolar membrane vesicles purified from DTY167 cells (ycf1Δ mutant); format: biochemical, Saccharomyces cerevisiae
Method: (§4) For the routine preparation of vacuolar membrane vesicles, 15 ml of stationary phase cultures of DTY165 or DTY167 were diluted into 1-liter volumes of fresh YPD medium, grown for 24 hours at 30° C. to an OD600 nm of approximately 0.8 and collected by centrifugation. After washing with distilled water, the cells were converted to spheroplasts with Zymolyase 20T (ICN) (Kim et al., 1994, supra) and intact vacuoles were isolated by flotation centrifugation of spheroplast lysates on Ficoll 400 step gradients as described by Roberts et al. (1991, Methods. Enzymol. 194:644-661). Both the spheroplast lysis buffer and Ficoll gradients contained 2 mg/ml bovine serum albumin, 1 μg/ml aprotinin, 1 μg/ml leupeptin, 1 μg/ml pepstatin, and 1 mM PMSF to minimize proteolysis. The resulting vacuole fraction was vesiculated in 5 mM MgCl2, 25 mM KCl, 10 mM Tris-Mes (pH 6.9) containing 2 mg/ml bovine serum albumin, 1 μg/ml aprotinin, 1 μg/ml leupeptin, 1 μg/ml pepstatin, and 1 mM PMSF, pelleted by centrifugation at 37,000× g for 25 min, and resuspended in suspension medium (1.1 M glycerol, 2 mM dithiothreitol, 1 mM Tris-EGTA, 2 mg/ml bovine serum albumin, 1 μg/ml aprotinin, 1 μg/ml leupeptin, 1 μg/ml pepstatin, 1 mM PMSF, 5 mM Tris-Mes, pH 7.6) (Kim et al., 1995, J. Biol. Chem. 270:2630-2635).
(§5) Unless otherwise indicated, [^3 H]DNP-GS uptake was measured at 25° C. in 200 μl reaction volumes containing 3 mM ATP, 3 mM MgSO4, 5 μM gramicidin-D, 10 mM creatine phosphate, 16 units/ml creatine kinase, 50 mM KC 1, 1 mg/ml bovine serum albumin, 400 mM sorbitol, 25 mM Tris-Mes (pH 8.0), and 66.2 μM [^3 H]DNP-GS (8.7 mCi/mmol) (Li et al., 1995, supra). […] Uptake was initiated by the addition of vacuolar membrane vesicles (10-15 μg of membrane protein), brief mixing of the samples on a vortex mixer and uptake was then allowed to proceed for 1-60 minutes. Uptake was terminated by the addition of 1 ml of ice-cold wash medium (400 mM sorbitol, 3 mM Tris-Mes, pH 8.0) and vacuum filtration of the suspension through prewetted Millipore HA cellulose nitrate membrane filters (pore diameter, 0.45 μm). The filters were rinsed twice with 1 ml of ice-cold wash medium and air-dried, and radioactivity was determined by liquid scintillation counting in BCS mixture (Amersham Corp.). Nonenergized [^3 H]DNP-GS uptake and extravesicular solution trapped on the filters were enumerated by the same procedure except that ATP and Mg^2 +were omitted from the uptake medium.

[3] = biological target: T1, YCF1 (vacuolar membrane vesicles purified from DTY165 cells); assay: [3H]DNP-GS uptake by vacuolar membrane vesicles purified from DTY165 cells; format: biochemical
Method: as §4, §5

[4] = tested on: vacuolar membrane vesicles purified from DTY167 cells (ycf1Δ mutant); format: biochemical, Saccharomyces cerevisiae; conditions: for 109Cd.GS2 uptake as percentage of control: 10 min; for 109Cd uptake of Mono-Q fraction: 5 μM gramicidin-D
Method: as §1, §2, §3

[5] = 5 μM gramicidin D, GSH, GSSG 1 mM, GS-conjugates 100 μM
[6] = 5 μM gramicidin D, GSH, GSSG 1 mM, GS-conjugates 100 μM, 10 min
[7] = 50 μM 109Cd.GS2, bafilomycin A1 0.5 μM, FCCP 5 μM, gramicidin-D 5 μM, NH4Cl 1 mM
[8] = 66.2 μM DNP-GS, 3 mM MgATP (omitted with MgAMP-PNP), MgAMP-PNP 3 mM, bafilomycin A1 0.5 μM, FCCP 5 μM, gramicidin D 5 μM, NH4Cl 1 mM
[9] = as Table 1 concentrations, 10 min
[10] = 50 μM (as Cd), pretreated 1:4 with 2-ME, 60° C., 10 minutes
[11] = 5 μM gramicidin D, read-out: I50 for MgATP-dependent, uncoupler-insensitive DNP-GS uptake

T1 sequence (P39109 whole entry): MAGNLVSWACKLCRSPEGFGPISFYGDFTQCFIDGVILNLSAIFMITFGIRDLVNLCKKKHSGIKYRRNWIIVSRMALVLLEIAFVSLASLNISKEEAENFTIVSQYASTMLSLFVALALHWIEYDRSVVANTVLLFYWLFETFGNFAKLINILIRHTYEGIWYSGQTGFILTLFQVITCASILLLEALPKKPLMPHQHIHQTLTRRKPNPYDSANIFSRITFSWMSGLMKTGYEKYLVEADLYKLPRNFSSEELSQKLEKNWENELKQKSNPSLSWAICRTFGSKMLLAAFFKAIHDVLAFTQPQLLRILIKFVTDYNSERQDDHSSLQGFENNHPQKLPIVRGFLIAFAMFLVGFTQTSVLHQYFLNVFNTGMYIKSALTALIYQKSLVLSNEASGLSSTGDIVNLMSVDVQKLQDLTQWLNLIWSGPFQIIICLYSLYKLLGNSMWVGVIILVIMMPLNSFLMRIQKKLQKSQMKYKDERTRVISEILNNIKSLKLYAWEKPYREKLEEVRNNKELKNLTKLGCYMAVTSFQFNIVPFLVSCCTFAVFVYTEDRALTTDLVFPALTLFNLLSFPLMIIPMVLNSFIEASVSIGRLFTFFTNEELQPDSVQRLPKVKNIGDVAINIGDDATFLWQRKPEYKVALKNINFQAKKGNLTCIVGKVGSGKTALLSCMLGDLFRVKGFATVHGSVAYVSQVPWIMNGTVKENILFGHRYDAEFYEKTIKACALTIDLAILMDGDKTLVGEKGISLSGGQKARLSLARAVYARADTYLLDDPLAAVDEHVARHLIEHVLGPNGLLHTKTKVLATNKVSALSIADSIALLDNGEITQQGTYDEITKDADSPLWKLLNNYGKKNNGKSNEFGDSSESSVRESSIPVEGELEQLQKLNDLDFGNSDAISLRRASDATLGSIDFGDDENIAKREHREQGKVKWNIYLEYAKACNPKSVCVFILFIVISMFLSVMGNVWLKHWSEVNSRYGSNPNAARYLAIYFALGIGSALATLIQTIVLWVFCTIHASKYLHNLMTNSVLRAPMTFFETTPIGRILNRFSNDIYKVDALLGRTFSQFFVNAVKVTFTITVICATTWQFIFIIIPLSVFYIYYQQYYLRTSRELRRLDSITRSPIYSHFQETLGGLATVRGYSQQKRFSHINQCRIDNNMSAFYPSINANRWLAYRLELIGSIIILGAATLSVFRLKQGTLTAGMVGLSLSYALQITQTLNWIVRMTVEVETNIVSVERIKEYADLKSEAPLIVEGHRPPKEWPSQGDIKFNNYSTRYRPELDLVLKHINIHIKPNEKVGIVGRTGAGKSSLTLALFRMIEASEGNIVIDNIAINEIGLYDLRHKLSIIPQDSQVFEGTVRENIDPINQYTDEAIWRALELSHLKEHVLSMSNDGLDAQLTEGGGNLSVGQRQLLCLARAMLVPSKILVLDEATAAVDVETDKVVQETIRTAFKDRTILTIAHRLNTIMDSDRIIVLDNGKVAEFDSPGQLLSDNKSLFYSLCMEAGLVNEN

## OCCS [2-mercaptoethanol]
[1]; pretreatment with 2-mercaptoethanol
  inhibition of Cd2+ uptake by pretreatment of HMW-Cd.GS: > 80%

## [N-]=[N+]=Nc1ccc(C(=O)CSC[C@H](NC(=O)CC[C@H](N)C(=O)O)C(=O)NCC(=O)O)cc1 [Azidophenacyl-GS]
[2]; [5]
  MgATP-dependent, uncoupler-insensitive DNP-GS uptake plus compound: 5.2 ± 0.3 nmol/mg/10 minutes
[2]; [6]
  MgATP-dependent, uncoupler-insensitive DNP-GS uptake as percentage of control: 80.0%
[3]; [5]
  MgATP-dependent, uncoupler-insensitive DNP-GS uptake plus compound: 16.0 ± 1.4 nmol/mg/10 minutes
[3]; [6]
  MgATP-dependent, uncoupler-insensitive DNP-GS uptake as percentage of control: 33.5%
[3]; 100 μM compound
  inhibition of DNP-GS uptake: about 50%

## CO/C1=C\C(C)=C\[C@@H](C)[C@@H](O)[C@@H](C)C/C(C)=C/C=C/[C@H](OC)[C@@H]([C@@H](C)[C@@H](O)[C@H](C)[C@@]2(O)C[C@@H](O)[C@H](C)[C@@H](C(C)C)O2)OC1=O [Bafilomycin A1]
[1]; [7]
  109Cd.GS2 uptake plus addition: 81.8 ± 6.0 nmol/mg/10 minutes
[1]; as Table 7 concentrations
  109Cd.GS2 uptake as percentage of control: 76.6%
[1]; text to Table 7
  decrease of MgATP-dependent Cd.GS2 uptake: 22%
[4]; [7]
  109Cd.GS2 uptake plus addition: 12.8 ± 3.6 nmol/mg/10 minutes
[4]; as Table 7 concentrations
  109Cd.GS2 uptake as percentage of control: 74.0%
[2]; [8]
  DNP-GS uptake plus the compound indicated: 4.3 ± 0.3 nmol/mg/10 minutes
[2]; [9]
  DNP-GS uptake as percentage of control plus the compound indicated: 27.9%
[3]; [8]
  DNP-GS uptake plus the compound indicated: 43.2 ± 1.0 nmol/mg/10 minutes
[3]; [9]
  DNP-GS uptake as percentage of control plus the compound indicated: 55.6%

## N#CC(C#N)=NNc1ccc(OC(F)(F)F)cc1 [FCCP]
[1]
  109Cd.GS2 uptake plus addition: 62.2 ± 11.4 nmol/mg/10 minutes
[1]; vacuolar membrane vesicles
  decrease of MgATP-dependent Cd.GS2 uptake: 22%
  109Cd.GS2 uptake as percentage of control: 58.8
[4]
  109Cd.GS2 uptake plus addition: 10.2 ± 1.6 nmol/mg/10 minutes
[4]; vacuolar membrane vesicles
  109Cd.GS2 uptake as percentage of control: 59.0
[2]
  DNP-GS uptake plus the compound indicated: 6.4 ± 0.3 nmol/mg/10 minutes
[2]; dty167 vacuolar membrane vesicles, 10 min
  DNP-GS uptake as percentage of control plus the compound indicated: 41.8
[3]
  DNP-GS uptake plus the compound indicated: 47.4 ± 1.7 nmol/mg/10 minutes
[3]; dty165 vacuolar membrane vesicles, 10 min
  DNP-GS uptake as percentage of control plus the compound indicated: 61.0

## N[C@@H](CCC(=O)N[C@@H](C[S][Cd][S]C[C@H](NC(=O)CC[C@H](N)C(=O)O)C(=O)NCC(=O)O)C(=O)NCC(=O)O)C(=O)O [HMW-Cd.GS, bis(glutathionato)cadmium]
[1]
  Vmax for MgATP-dependent, uncoupler-insensitive Cd.GS2 uptake: 157.2±60.7 nmol/mg/10 minutes
[1]; 50 μM 109Cd.GS2, no addition
  109Cd.GS2 uptake, control: 105.8 ± 12.4 nmol/mg/10 minutes
[1]; 50 μM (as Cd)
  109Cd uptake of Mono-Q fraction: 66.3 ± 2.7 nmol/mg/10 min
[1]; [10]
  109Cd uptake after 2-ME pretreatment: 11.9 ± 2.4 nmol/mg/10 min
[1]; listed as Cd.GS2
  Vmax for MgATP-dependent, uncoupler-insensitive Cd.GS2 uptake: 157.2±30.4 nmol/mg/10 minutes
[1]; read-out: Km for MgATP-dependent, uncoupler-insensitive Cd.GS2 uptake
  Km: 39.1 ± 14.1 µM
[4]; 50 μM 109Cd.GS2, no addition
  109Cd.GS2 uptake, control: 17.3 ± 2.7 nmol/mg/10 minutes
[4]; 50 μM (as Cd)
  109Cd uptake of Mono-Q fraction: 5.6 ± 2.6 nmol/mg/10 min
[4]; [10]
  109Cd uptake after 2-ME pretreatment: 4.4 ± 3.0 nmol/mg/10 min

## Nc1ncnc2c1ncn2[C@@H]1O[C@H](COP(=O)(O)OP(=O)(O)NP(=O)(O)O)[C@@H](O)[C@H]1O [MgAMP-PNP]
[2]; [8]
  DNP-GS uptake plus the compound indicated: 1.4 ± 0.3 nmol/mg/10 minutes
[2]; [9]
  DNP-GS uptake as percentage of control plus the compound indicated: 9.1%
[3]; [8]
  DNP-GS uptake plus the compound indicated: 2.5 ± 0.5 nmol/mg/10 minutes
[3]; [9]
  DNP-GS uptake as percentage of control plus the compound indicated: 3.2%

## Cl.N [NH4 Cl, Ammonium chloride]
[1]; [7]
  109Cd.GS2 uptake plus addition: 89.8 ± 8.2 nmol/mg/10 minutes
[1]; as Table 7 concentrations
  109Cd.GS2 uptake as percentage of control: 84.8%
[1]; text to Table 7
  decrease of MgATP-dependent Cd.GS2 uptake: 15%
[4]; [7]
  109Cd.GS2 uptake plus addition: 10.0 ± 1.7 nmol/mg/10 minutes
[4]; as Table 7 concentrations
  109Cd.GS2 uptake as percentage of control: 57.8%
[2]; [8]
  DNP-GS uptake plus the compound indicated: 14.9 ± 0.7 nmol/mg/10 minutes
[2]; [9]
  DNP-GS uptake as percentage of control plus the compound indicated: 96.8%
[3]; [8]
  DNP-GS uptake plus the compound indicated: 69.1 ± 2.9 nmol/mg/10 minutes
[3]; [9]
  DNP-GS uptake as percentage of control plus the compound indicated: 88.9%

## CC[C@]1(O)C[C@@H]2CN(CCc3c([nH]c4ccccc34)[C@@](C(=O)OC)(c3cc4c(cc3OC)N(C)[C@H]3[C@@](O)(C(=O)OC)[C@H](OC(C)=O)[C@]5(CC)C=CCN6CC[C@]43[C@@H]65)C2)C1 [Vinblastine]
[2]; [11]
  IC50: > 500 µM
[3]; [11]
  IC50: 89 µM and 88.8 µM

## MgATP
[2]; --MgATP, 66.2 μM DNP-GS
  DNP-GS uptake as percentage of control, MgATP omitted: 9.7%
  DNP-GS uptake, MgATP omitted: 1.5 ± 0.6 nmol/mg/10 minutes
[3]; 66.2 μM DNP-GS, 5 μM gramicidin D
  Vmax(MgATP) of uncoupler-insensitive DNP-GS uptake: 38.4±5.6 nmol/mg/10 minutes
[3]; --MgATP, 66.2 μM DNP-GS
  DNP-GS uptake as percentage of control, MgATP omitted: 2.8%
  DNP-GS uptake, MgATP omitted: 2.2 ± 0.4 nmol/mg/10 minutes
[3]; read-out: Km(MgATP) of uncoupler-insensitive DNP-GS uptake, 66.2 μM DNP-GS, 5 μM gramicidin D, 10 minutes
  Km: 86.5 ± 29.5 µM

## mono(glutathionato)cadmium [LMW-Cd.GS]
[1]; 50 μM (as Cd)
  109Cd uptake of Mono-Q fraction: 4.4 ± 0.8 nmol/mg/10 min
[1]; all of the concentrations examined
  uptake of LMW-109Cd.GS: negligible
[4]; 50 μM (as Cd)
  109Cd uptake of Mono-Q fraction: 3.9 nmol/mg/10 min
